How the values were obtained:
Acetylcholinesterase = Acetylcholinesterase (Homo sapiens, UniProt P22303); assay: Inhibition of human recombinant AChE using S-acetylthiocholine as substrate by DTNB reagent based spectrophotometric analysis
[1] = target: T1, Amine oxidase [flavin-containing] B (Homo sapiens, UniProt P27338)
T1 sequence (P27338 whole entry): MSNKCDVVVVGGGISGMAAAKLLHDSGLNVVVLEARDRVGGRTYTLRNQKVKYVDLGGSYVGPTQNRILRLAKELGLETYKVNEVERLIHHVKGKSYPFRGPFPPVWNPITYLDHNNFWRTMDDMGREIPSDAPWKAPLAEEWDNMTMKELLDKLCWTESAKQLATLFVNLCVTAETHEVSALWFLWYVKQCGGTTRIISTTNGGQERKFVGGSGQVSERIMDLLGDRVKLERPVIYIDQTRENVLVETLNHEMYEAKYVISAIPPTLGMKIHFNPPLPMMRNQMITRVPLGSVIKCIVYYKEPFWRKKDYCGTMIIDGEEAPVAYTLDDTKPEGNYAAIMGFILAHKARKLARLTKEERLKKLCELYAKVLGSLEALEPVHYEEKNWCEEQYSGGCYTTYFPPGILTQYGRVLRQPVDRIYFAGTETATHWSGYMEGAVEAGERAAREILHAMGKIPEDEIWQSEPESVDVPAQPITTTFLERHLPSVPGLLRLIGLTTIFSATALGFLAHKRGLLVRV

[2] = target: T2, Amine oxidase [flavin-containing] A (Homo sapiens, UniProt P21397)
T2 sequence (P21397 whole entry): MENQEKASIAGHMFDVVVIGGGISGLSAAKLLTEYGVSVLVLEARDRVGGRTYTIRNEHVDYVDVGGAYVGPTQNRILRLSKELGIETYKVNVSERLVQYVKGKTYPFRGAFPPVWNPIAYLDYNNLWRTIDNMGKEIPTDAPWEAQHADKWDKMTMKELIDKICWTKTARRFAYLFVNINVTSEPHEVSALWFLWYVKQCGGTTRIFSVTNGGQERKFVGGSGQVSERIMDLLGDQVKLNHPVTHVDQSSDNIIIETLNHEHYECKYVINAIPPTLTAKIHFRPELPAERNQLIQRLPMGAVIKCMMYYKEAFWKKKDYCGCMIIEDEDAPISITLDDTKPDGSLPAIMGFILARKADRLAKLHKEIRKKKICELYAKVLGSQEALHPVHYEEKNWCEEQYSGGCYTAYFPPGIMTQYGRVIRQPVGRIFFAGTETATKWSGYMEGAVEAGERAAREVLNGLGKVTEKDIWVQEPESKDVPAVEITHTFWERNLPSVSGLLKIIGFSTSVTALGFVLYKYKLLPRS

[3] = target: T2, Amine oxidase [flavin-containing] A; assay: Competitive inhibition of human recombinant MAO-A assessed as inhibitory constant using varying levels of kynuramine as substrate by Lineweaver-burk plot analysis
[4] = target: T1, Amine oxidase [flavin-containing] B; assay: Competitive inhibition of human recombinant MAO-B assessed as inhibitory constant using varying levels of kynuramine as substrate by Lineweaver-burk plot analysis
Cholinesterase = Cholinesterase (Equus caballus, UniProt P81908)
Sequence of Cholinesterase (P81908 whole entry): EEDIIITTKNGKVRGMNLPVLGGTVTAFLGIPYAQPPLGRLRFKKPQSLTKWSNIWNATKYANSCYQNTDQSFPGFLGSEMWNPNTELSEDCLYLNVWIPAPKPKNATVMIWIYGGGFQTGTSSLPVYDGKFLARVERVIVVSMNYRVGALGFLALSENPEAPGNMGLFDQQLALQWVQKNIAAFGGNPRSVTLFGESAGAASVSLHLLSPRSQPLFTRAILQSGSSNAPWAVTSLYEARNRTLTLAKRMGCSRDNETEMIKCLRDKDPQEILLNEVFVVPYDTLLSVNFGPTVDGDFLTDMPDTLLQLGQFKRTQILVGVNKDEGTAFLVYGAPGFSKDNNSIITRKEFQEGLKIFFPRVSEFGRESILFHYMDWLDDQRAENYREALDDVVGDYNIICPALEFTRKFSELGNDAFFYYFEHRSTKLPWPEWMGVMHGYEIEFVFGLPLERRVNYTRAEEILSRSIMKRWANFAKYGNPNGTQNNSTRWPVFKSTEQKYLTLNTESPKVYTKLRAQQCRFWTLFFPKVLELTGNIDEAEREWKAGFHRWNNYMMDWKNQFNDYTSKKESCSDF
Description: Inhibition of equine serum BuChE using S-butyrylthiocholine as substrate at by DTNB reagent based spectrophotometric analysis

D-amino-acid oxidase = D-amino-acid oxidase (Sus scrofa, UniProt P00371); assay: Inhibition of porcine kidney DAAO using D-serine as substrate by Amplex red and horseradish peroxidase fluorescence assay
Sequence of D-amino-acid oxidase (P00371 whole entry): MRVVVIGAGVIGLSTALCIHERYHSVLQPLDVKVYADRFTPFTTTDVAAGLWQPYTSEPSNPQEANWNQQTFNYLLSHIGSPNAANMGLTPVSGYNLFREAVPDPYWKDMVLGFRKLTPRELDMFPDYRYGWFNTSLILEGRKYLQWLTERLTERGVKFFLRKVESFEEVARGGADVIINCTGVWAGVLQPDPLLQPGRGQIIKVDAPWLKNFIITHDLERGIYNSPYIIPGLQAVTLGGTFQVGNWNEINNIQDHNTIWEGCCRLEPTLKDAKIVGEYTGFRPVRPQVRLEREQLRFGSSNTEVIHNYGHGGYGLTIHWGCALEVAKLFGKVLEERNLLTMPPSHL

Sequence of Acetylcholinesterase (P22303 whole entry): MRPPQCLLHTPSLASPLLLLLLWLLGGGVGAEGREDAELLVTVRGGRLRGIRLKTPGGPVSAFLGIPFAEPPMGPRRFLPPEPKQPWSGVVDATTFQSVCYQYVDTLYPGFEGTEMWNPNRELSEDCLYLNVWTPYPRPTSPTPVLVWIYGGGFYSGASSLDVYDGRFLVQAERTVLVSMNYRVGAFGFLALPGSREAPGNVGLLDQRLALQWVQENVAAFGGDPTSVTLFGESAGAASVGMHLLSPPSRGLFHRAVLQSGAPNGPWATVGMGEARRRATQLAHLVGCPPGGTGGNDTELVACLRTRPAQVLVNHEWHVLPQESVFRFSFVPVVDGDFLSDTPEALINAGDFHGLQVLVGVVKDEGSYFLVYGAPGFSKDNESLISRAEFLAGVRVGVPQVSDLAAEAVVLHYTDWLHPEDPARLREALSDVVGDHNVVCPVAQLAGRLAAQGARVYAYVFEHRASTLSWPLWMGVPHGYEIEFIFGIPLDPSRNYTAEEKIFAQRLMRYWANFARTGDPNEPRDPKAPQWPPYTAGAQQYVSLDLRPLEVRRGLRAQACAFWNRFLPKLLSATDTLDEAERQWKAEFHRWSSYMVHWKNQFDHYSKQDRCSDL

Ki [3] | Ki [4] | IC50 (D-amino-acid oxidase) | SMILES | IC50 (Acetylcholinesterase) | IC50 [1] | IC50 [2] | IC50 (Cholinesterase)
 |  |  | O=c1[nH]c2ccc(OCc3ccc(F)cc3)cc2c(=O)o1 | 76200 nM | 15 nM | 122 nM | 
52 nM | 4.3 nM |  | O=c1[nH]c2ccc(OCc3ccccc3)cc2c(=O)o1 |  | 73 nM | 132 nM | 
 |  |  | O=c1[nH]c2ccc(OCc3cccc(C(F)(F)F)c3)cc2c(=O)o1 |  | 4.7 nM | 83 nM | 
 |  |  | O=c1[nH]c2ccc(OCc3cccc(Br)c3)cc2c(=O)o1 |  | 11 nM | 59 nM | 
 |  |  | O=c1[nH]c2ccc(OCc3ccc(Br)cc3)cc2c(=O)o1 |  | 6.9 nM | 9.5 nM | 19800 nM
 |  |  | O=c1[nH]c2ccc(OCc3cccc(I)c3)cc2c(=O)o1 |  | 14 nM | 43 nM | 
 |  |  | COc1cccc(COc2ccc3[nH]c(=O)oc(=O)c3c2)c1 |  | 18 nM | 94 nM | 
 |  |  | CC(C)c1ccc(COc2ccc3[nH]c(=O)oc(=O)c3c2)cc1 | 55000 nM | 76 nM | 10 nM | 21100 nM
 |  |  | Cc1ccc(COc2ccc3[nH]c(=O)oc(=O)c3c2)cc1 |  | 6.4 nM | 61 nM | 19100 nM
 |  | 933 nM | Cc1cc(C(=O)O)n[nH]1 |  |  |  | 
 |  |  | O=c1[nH]c2ccc(OCc3ccc4ccccc4c3)cc2c(=O)o1 |  | 20 nM | 65 nM | 16600 nM
 |  | 1070 nM | COc1cc(/C=C/C(=O)CC(=O)/C=C/c2ccc(O)c(OC)c2)ccc1O [CURCUMIN] |  |  |  | 

Source: ChEMBL document CHEMBL5214951, “Isatoic anhydrides as novel inhibitors of monoamine oxidase” (Bioorg Med Chem, 2022)
